What was measured:
[1] = molecular target: T1, SMARCA2-HiBiT HeLa cells (protein which is expressed from the SMARCA2 gene) (Homo sapiens, UniProt P51531); test: SMARCA2 degradation assay (HiBiT-fusion HeLa cell line, 24 h, luminescence); assay type: cell-based
T1 construct: protein which is expressed from the SMARCA2 and SMARCA4 genes; host or cells: HeLa (SMARCA2-HiBiT engineered line)
Procedure, shortened: (§1)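 SMARCA2- or SMARCA4-HiBiT HeLa cells seeded overnight at 37° C, then given compound as a 10-point dilution (typically 10 μM to 300 pM) for 24 h at 37° C. Protein level read by HiBiT lytic detection luminescence; DC50 from dose-response curves; degradation also scored at 1 μM.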

[2] = molecular target: T2, SMARCA4-HiBiT HeLa cells (protein which is expressed from the SMARCA4 gene) (Homo sapiens, UniProt P51532); test: SMARCA4 degradation assay (HiBiT-fusion HeLa cell line, 24 h, luminescence); assay type: cell-based
T2 construct: protein which is expressed from the SMARCA2 and SMARCA4 genes; host or cells: HeLa (SMARCA4-HiBiT engineered line)
Procedure, shortened: as §1

T1 sequence (P51531 whole entry, the tested form may be a part): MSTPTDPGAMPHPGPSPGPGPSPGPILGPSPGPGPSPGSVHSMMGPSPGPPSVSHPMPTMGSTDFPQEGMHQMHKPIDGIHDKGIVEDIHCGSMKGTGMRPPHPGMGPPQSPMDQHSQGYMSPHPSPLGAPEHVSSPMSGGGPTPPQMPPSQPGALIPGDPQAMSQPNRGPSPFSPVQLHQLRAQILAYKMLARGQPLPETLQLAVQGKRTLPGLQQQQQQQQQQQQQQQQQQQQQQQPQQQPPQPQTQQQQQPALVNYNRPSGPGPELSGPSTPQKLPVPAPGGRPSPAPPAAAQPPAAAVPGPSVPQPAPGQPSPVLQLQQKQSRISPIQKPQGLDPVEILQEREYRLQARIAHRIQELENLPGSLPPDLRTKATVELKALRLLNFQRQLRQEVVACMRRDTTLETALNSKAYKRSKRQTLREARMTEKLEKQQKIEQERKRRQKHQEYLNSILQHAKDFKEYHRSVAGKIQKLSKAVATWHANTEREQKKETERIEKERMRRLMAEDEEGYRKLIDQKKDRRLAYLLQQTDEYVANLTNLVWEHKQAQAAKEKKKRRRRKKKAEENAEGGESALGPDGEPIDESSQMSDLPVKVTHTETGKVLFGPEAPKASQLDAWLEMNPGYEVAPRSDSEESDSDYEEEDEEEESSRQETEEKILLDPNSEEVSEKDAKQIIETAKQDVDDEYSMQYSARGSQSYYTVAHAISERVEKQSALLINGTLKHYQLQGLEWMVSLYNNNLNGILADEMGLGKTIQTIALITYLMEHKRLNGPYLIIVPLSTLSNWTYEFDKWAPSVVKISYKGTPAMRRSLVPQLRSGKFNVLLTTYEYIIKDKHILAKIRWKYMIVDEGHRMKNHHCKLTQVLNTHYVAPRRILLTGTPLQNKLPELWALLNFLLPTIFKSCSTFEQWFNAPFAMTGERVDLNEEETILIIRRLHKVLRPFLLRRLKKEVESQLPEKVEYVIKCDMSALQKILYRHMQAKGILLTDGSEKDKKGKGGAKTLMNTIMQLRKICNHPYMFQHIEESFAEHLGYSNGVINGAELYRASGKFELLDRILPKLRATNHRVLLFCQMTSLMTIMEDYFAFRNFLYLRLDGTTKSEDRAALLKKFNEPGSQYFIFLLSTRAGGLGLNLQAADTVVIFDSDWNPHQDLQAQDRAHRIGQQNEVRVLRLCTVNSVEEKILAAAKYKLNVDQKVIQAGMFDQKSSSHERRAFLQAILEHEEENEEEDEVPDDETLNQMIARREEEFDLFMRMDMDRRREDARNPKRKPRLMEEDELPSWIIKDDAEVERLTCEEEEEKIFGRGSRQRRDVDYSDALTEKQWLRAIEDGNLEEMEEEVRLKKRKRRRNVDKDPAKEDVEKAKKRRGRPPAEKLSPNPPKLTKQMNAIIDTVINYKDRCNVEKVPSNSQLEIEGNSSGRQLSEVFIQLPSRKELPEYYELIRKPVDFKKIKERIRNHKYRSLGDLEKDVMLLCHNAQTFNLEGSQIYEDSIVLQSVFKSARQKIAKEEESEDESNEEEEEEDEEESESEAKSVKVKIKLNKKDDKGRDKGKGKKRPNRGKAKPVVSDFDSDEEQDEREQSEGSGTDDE
T2 sequence (P51532 whole entry, the tested form may be a part): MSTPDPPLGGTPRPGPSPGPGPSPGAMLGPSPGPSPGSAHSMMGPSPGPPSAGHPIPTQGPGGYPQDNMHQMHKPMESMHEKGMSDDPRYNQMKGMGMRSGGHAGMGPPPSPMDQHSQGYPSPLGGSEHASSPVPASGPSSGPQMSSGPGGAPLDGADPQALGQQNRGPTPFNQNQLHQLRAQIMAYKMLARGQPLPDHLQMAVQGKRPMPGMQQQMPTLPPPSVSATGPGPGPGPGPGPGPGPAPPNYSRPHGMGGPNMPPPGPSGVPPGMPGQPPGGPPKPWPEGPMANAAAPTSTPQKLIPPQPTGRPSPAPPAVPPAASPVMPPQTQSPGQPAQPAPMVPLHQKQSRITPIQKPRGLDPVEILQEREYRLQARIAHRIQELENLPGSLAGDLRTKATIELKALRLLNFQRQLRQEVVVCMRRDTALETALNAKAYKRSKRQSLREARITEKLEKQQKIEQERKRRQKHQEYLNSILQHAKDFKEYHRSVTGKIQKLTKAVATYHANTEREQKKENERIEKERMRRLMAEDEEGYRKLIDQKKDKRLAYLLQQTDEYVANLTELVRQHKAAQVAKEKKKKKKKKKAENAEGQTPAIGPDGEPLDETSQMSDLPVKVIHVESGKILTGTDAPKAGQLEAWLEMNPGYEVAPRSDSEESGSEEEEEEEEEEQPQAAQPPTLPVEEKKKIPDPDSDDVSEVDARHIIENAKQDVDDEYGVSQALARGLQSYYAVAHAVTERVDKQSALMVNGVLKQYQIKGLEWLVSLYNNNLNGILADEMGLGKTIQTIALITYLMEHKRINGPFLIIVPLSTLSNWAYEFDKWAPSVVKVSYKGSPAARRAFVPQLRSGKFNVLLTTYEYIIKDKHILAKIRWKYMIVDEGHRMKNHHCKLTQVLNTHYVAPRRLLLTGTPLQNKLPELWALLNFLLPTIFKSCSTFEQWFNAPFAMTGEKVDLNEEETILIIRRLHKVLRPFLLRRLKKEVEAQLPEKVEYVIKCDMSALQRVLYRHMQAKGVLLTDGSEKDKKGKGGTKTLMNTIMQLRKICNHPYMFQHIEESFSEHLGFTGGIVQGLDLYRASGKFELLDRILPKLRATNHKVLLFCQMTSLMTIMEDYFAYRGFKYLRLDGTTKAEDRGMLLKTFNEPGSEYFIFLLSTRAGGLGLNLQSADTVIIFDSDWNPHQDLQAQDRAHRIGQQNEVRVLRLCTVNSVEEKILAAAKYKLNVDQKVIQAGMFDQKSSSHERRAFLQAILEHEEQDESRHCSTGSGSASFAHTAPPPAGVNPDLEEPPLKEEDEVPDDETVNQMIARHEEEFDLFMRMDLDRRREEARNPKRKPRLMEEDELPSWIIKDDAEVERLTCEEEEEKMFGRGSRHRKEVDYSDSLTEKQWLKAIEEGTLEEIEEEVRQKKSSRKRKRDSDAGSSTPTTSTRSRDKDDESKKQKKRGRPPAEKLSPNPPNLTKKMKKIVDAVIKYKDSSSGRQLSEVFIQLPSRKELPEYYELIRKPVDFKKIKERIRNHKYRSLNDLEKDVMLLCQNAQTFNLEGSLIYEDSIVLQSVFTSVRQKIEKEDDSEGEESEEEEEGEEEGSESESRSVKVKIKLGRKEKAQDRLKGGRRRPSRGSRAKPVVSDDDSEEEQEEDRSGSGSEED

SMILES	DC50 [1]	SMARCA2 % Degradation @ 1 μM [1]	DC50 [2]	inhibition at 1 µM [2]
C[C@@H]1CCN(c2cc(-c3ccccc3O)nnc2N)CCN1c1ccnc(C#CCN(C)C)c1 [Compound P-427, 0-{5-[(R)-4-{2-[3-(dimethylamino)-1-propynyl]-4-pyridyl}-5-methyl-1,4-diazepan-1-yl]-6-amino-3-pyridazinyl}phenol]	< 50 nM	+++ (+++=>70%)	< 50 nM	30 to 70%
C[C@@H]1CCN(c2cc(-c3ccccc3O)nnc2N)CCN1c1ccnc(C#CCn2ccnc2)c1 [Compound P-428, 0-{5-[(R)-4-{2-[3-(1-imidazolyl)-1-propynyl]-4-pyridyl}-5-methyl-1,4-diazepan-1-yl]-6-amino-3-pyridazinyl}phenol]	50 to 500 nM	+++ (+++=>70%)	50 to 500 nM	> 70%
C[C@@H]1CCN(c2cc(-c3ccccc3O)nnc2N)CCN1c1ccc(C#N)c(C#CCn2ccnc2)n1 [Compound P-429, 6-{(R)-4-[3-amino-6-(o-hydroxyphenyl)-4-pyridazinyl]-7-methyl-1,4-diazepan-1-y1}-2-[3-(1-imidazolyl)-1-propynyl]nicotinonitrile]	50 to 500 nM	+++ (+++=>70%)	50 to 500 nM	30 to 70%
CC(C)(C)OC(=O)NCC#Cc1cccc(N2CCCN(c3cc(-c4ccccc4O)nnc3N)CC2)n1 [Compound P-432, 3-(6-{4-[3-amino-6-(o-hydroxyphenyl)-4-pyridaziny1]-1,4-diazepan-1-yl}-2-pyridyl)-2-propynyl 2-methyl-2-propanecarbamate]	500 to 5000 nM		> 5000 nM	

The next lines start with the values.

DC50 [1]	SMARCA2 % Degradation @ 1 μM [1]	DC50 [2]	inhibition at 1 µM [2]	SMILES
< 50 nM	++ (++=30-70%)	< 50 nM	30 to 70%	C[C@@H]1CCN(c2cc(-c3ccccc3O)nnc2N)CCN1c1ccnc(C#CCN2CCCCC2)c1 [Compound P-425, 0-(5-{(R)-5-methyl-4-[2-(3-piperidino-1-propynyl)-4-pyridyl]-1,4-diazepan-1-yl}-6-amino-3-pyridazinyl)phenol]
50 to 500 nM	++ (++=30-70%)	50 to 500 nM	30 to 70%	C[C@@H]1CCN(c2cc(-c3ccccc3O)nnc2N)CCN1c1ccnc(C#CCN2CCOCC2)c1 [Compound P-426, 0-(5-{(R)-5-methyl-4-[2-(3-morpholino-1-propynyl)-4-pyridyl]-1,4-diazepan-1-yl}-6-amino-3-pyridazinyl)phenol]

— patent US20260265238A1, “COMPOUNDS AND PHARMACEUTICAL COMPOSITIONS THAT DEGRADE SWI/SNF-RELATED MATRIX-ASSOCIATED ACTIN-DEPENDENT REGULATOR OF CHROMATIN SUBFAMILY A” (Plexium, Inc., priority 2023, published 2026)
